Tests used:
[1] = molecular target: T1, Human β2 adrenoceptor (Homo sapiens, UniProt P07550); assay: β2 adrenoceptor radioligand binding assay
T1 construct: purchased Perkin Elmer
Procedure: β2 Adrenoceptor Radioligand Binding Assay
Human β2 adrenoceptor membranes (7.5 ug/well) from Perkin Elmer were incubated with 0.3 nM 125-I Cyanopindolol with or without test compounds, or a saturating concentration of s-propranolol (2 μM) for the determination of non-specific binding. The assay was carried out in 96-well polypropylene plates in a volume of 200 ul. The assay buffer used was 25 mM HEPES, 0.5% BSA (w/v), 1 mM EDTA, 0.02% ascorbic acid (v/v), (pH 7.4). The final assay concentration of DMSO was 0.5% (v/v). The plates were sealed and incubated for 1 h at room temperature on an orbital shaker (slow speed). Membranes were harvested onto 96-well unifilter GF/C filter plates pre-treated with 0.5% polyethyleneimine (v/v), using a filter manifold, washed six times with 200 ul of wash buffer containing 10 mM HEPES and 500 mM NaCl. The plates were dried before addition of 50 μl of microscint-0, sealed then read in a Trilux Microbeta scintillation counter. IC50 values are determined from competition curves using a non-linear curve fitting program. Ki values were calculated from IC50 values by the Cheng and Prusoff equation.

[2] = molecular target: T2, Human M3 receptor (Homo sapiens, UniProt P20309); assay: biochemical; format: binding; conditions: read-out: M3 Range
T2 construct: purchased Perkin Elmer
T2 sequence (P20309 whole entry): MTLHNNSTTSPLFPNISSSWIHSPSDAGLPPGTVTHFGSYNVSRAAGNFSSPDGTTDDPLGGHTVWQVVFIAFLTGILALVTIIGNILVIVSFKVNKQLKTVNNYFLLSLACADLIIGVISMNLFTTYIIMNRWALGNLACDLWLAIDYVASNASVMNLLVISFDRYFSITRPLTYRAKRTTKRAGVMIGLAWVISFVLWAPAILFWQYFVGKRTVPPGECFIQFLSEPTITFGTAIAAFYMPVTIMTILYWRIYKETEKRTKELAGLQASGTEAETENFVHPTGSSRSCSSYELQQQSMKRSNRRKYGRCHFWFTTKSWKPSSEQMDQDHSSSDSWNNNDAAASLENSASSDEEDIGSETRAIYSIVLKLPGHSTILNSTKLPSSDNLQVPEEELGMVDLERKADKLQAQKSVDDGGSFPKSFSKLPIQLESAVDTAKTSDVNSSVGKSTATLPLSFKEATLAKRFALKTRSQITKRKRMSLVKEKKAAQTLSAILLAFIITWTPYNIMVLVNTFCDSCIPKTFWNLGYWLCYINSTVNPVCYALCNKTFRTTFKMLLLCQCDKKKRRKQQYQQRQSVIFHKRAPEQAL

T1 sequence (P07550 whole entry): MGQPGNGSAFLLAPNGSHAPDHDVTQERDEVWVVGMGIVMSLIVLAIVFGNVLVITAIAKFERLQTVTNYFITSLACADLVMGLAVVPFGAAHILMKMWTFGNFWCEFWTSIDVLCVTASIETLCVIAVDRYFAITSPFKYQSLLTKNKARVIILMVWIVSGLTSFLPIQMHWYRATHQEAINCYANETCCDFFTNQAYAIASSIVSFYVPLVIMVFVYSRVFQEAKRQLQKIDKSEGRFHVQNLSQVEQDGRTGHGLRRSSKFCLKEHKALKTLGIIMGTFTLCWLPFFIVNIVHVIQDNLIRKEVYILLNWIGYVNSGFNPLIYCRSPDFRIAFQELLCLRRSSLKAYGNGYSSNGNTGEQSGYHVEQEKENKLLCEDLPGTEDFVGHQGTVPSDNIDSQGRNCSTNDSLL

COc1cc(CNC[C@H](O)c2ccc(O)c3[nH]c(=O)ccc23)cc(F)c1C(=O)NCc1ccc(-c2cccc([C@](O)(C(=O)OCC3CCN(Cc4ccccc4)CC3)c3ccccc3)c2)s1 [Compound 1X, (1-Benzylpiperidin-4-yl)methyl (S)-2-(3-(5-((2-fluoro-4-((((R)-2-hydroxy-2-(8-hydroxy-2-oxo-1,2-dihydroquinolin-5-yl)ethyl)amino)methyl)-6-methoxybenzamido)methyl)thiophen-2-yl)phenyl)-2-hydroxy-2-phenylacetate]
IC50 [1]: < 0.3 nM | IC50 [2]: 0.3 to 3 nM

COc1cc(C(=O)NCc2ncc(-c3cccc([C@](O)(C(=O)OCC4CCN(Cc5ccccc5)CC4)c4ccccc4)c3)cn2)ccc1CNC[C@H](O)c1ccc(O)c2[nH]c(=O)ccc12 [Compound 4E, (1-Benzylpiperidin-4-yl)methyl (S)-2-hydroxy-2-(3-(2-((4-((((R)-2-hydroxy-2-(8-hydroxy-2-oxo-1,2-dihydroquinolin-5-yl)ethyl)amino)methyl)-3-methoxybenzamido)methyl)pyrimidin-5-yl)phenyl)-2-phenylacetate]
IC50 [1]: 0.3 to 3 nM | IC50 [2]: 0.3 to 3 nM

O=C(NCc1ccc(-c2cccc([C@](O)(C(=O)OCC3CCN(Cc4ccccc4)CC3)c3ccccc3)c2)s1)c1ccc(CNC[C@H](O)c2ccc(O)c3[nH]c(=O)ccc23)nc1 [Compound 1L, (1-Benzylpiperidin-4-yl)methyl (S)-2-hydroxy-2-(3-(5-((6-((((R)-2-hydroxy-2-(8-hydroxy-2-oxo-1,2-dihydroquinolin-5-yl)ethyl)amino)methyl)-nicotinamido)methyl)thiophen-2-yl)phenyl)-2-phenylacetate]
IC50 [1]: < 0.3 nM | IC50 [2]: 0.3 to 3 nM

Cc1cc(C(=O)NCc2ccc(-c3cccc([C@](O)(C(=O)OCC4CCN(Cc5ccccc5)CC4)c4ccccc4)c3)s2)c(F)cc1CNC[C@H](O)c1ccc(O)c2[nH]c(=O)ccc12 [Compound 1O, (1-Benzylpiperidin-4-yl)methyl (S)-2-(3-(5-((2-fluoro-4-((((R)-2-hydroxy-2-(8-hydroxy-2-oxo-1,2-dihydroquinolin-5-yl)ethyl)amino)methyl)-5-methylbenzamido)methyl)thiophen-2-yl)phenyl)-2-hydroxy-2-phenylacetate]
IC50 [1]: < 0.3 nM | IC50 [2]: > 3 nM

COc1cc(C(=O)NCc2nccnc2-c2cccc([C@](O)(C(=O)OCC3CCN(Cc4ccccc4)CC3)c3ccccc3)c2)ccc1CNC[C@H](O)c1ccc(O)c2[nH]c(=O)ccc12 [Compound 5E, (1-Benzylpiperidin-4-yl)methyl (S)-2-hydroxy-2-(3-(3-((4-((((R)-2-hydroxy-2-(8-hydroxy-2-oxo-1,2-dihydroquinolin-5-yl)ethyl)amino)methyl)-3-methoxybenzamido)methyl)pyrazin-2-yl)phenyl)-2-phenylacetate]
IC50 [1]: < 0.3 nM | IC50 [2]: 0.3 to 3 nM

O=C(NCc1ccc(-c2cccc([C@](O)(C(=O)OC3CCC4(CC3)CCN(Cc3ccccc3)CC4)c3ccccc3)c2)s1)c1ccc(CNC[C@H](O)c2ccc(O)c3[nH]c(=O)ccc23)cc1 [Compound 2H, 3-Benzyl-3-azaspiro[5.5]undecan-9-yl (S)-2-hydroxy-2-(3-(5-((4-((((R)-2-hydroxy-2-(8-hydroxy-2-oxo-1,2-dihydroquinolin-5-yl)ethyl)amino)-methyl)benzamido)methyl)thiophen-2-yl)phenyl)-2-phenylacetate]
IC50 [1]: < 0.3 nM | IC50 [2]: > 3 nM

O=C(c1ccc2c(c1)CC(NC[C@H](O)c1ccc(O)c3[nH]c(=O)ccc13)C2)N1CCC(c2cccc([C@](O)(C(=O)OCC3CCN(Cc4ccccc4)CC3)c3ccccc3)c2)CC1 (stereo partly drawn) [Compound 7D, (1-Benzylpiperidin-4-yl)methyl (2S)-2-hydroxy-2-(3-(1-(2-(((R)-2-hydroxy-2-(8-hydroxy-2-oxo-1,2-dihydroquinolin-5-yl)ethyl)amino)-2,3-dihydro-1H-indene-5-carbonyl)piperidin-4-yl)phenyl)-2-phenylacetate]
IC50 [1]: 0.3 to 3 nM | IC50 [2]: < 0.3 nM

COc1c(CNC[C@H](O)c2ccc(O)c3[nH]c(=O)ccc23)ccc(C(=O)N2CC=C(c3cccc([C@](O)(C(=O)OCC4CCN(Cc5ccccc5)CC4)c4ccccc4)c3)CC2)c1F [Compound 3D, (1-Benzylpiperidin-4-yl)methyl (S)-2-(3-(1-(2-fluoro-4-((((R)-2-hydroxy-2-(8-hydroxy-2-oxo-1,2-dihydroquinolin-5-yl)ethyl)amino)methyl)-3-methoxybenzoyl)-1,2,3,6-tetrahydropyridin-4-yl)phenyl)-2-hydroxy-2-phenylacetate]
IC50 [1]: 0.3 to 3 nM | IC50 [2]: 0.3 to 3 nM

O=C(NCC(=O)N1CC=C(c2cccc([C@](O)(C(=O)OCC3CCN(Cc4ccccc4)CC3)c3ccccc3)c2)CC1)c1ccc(CCNC[C@H](O)c2ccc(O)c3[nH]c(=O)ccc23)cc1 [Compound 8, (1-Benzylpiperidin-4-yl)methyl (S)-2-hydroxy-2-(3-(1-((4-(2-(((R)-2-hydroxy-2-(8-hydroxy-2-oxo-1,2-dihydroquinolin-5-yl)ethyl)amino)ethyl)benzoyl)-glycyl)-1,2,3,6-tetrahydropyridin-4-yl)phenyl)-2-phenylacetate]
IC50 [1]: < 0.3 nM | IC50 [2]: < 0.3 nM

O=C(c1ccc(-c2cccc([C@](O)(C(=O)OCC3CCN(Cc4ccccc4)CC3)c3ccccc3)c2)nc1)N1CCC(CNC[C@H](O)c2ccc(O)c3[nH]c(=O)ccc23)CC1 [Compound 6D, (1-Benzylpiperidin-4-yl)methyl (S)-2-hydroxy-2-(3-(5-(4-((((R)-2-hydroxy-2-(8-hydroxy-2-oxo-1,2-dihydroquinolin-5-yl)ethyl)amino)methyl)piperidine-1-carbonyl)pyridin-2-yl)phenyl)-2-phenylacetate]
IC50 [1]: < 0.3 nM | IC50 [2]: 0.3 to 3 nM

O=C(NCc1ccc(-c2cccc([C@](O)(C(=O)OCC3CCN(Cc4ccccc4)CC3)c3ccccc3)c2)s1)c1ccc(CNC[C@H](O)c2ccc(O)c3[nH]c(=O)ccc23)c(F)c1F [Compound 1V, (1-Benzylpiperidin-4-yl)methyl (S)-2-(3-(5-((2,3-difluoro-4-((((R)-2-hydroxy-2-(8-hydroxy-2-oxo-1,2-dihydroquinolin-5-yl)ethyl)amino)methyl)-benzamido)methyl)thiophen-2-yl)phenyl)-2-hydroxy-2-phenylacetate]
IC50 [1]: < 0.3 nM | IC50 [2]: 0.3 to 3 nM

O=C1c2ccc(CNC[C@H](O)c3ccc(O)c4[nH]c(=O)ccc34)cc2C(=O)N1Cc1ccc(-c2cccc([C@](O)(C(=O)OCC3CCN(Cc4ccccc4)CC3)c3ccccc3)c2)s1 [Compound 12, (1-Benzylpiperidin-4-yl)methyl (S)-2-hydroxy-2-(3-(5-((5-((((R)-2-hydroxy-2-(8-hydroxy-2-oxo-1,2-dihydroquinolin-5-yl)ethyl)amino)methyl)-1,3-dioxoisoindolin-2-yl)methyl)thiophen-2-yl)phenyl)-2-phenylacetate]
IC50 [1]: 0.3 to 3 nM | IC50 [2]: 0.3 to 3 nM

O=C(NCc1cc(-c2cccc([C@](O)(C(=O)OCC3CCN(Cc4ccccc4)CC3)c3ccccc3)c2)cs1)c1ccc(CNC[C@H](O)c2ccc(O)c3[nH]c(=O)ccc23)cc1 [Compound 5, (1-Benzylpiperidin-4-yl)methyl (S)-2-hydroxy-2-(3-(5-((4-((((R)-2-hydroxy-2-(8-hydroxy-2-oxo-1,2-dihydroquinolin-5-yl)ethyl)amino)methyl)benzamido)methyl)-thiophen-3-yl)phenyl)-2-phenylacetate]
IC50 [1]: < 0.3 nM | IC50 [2]: 0.3 to 3 nM

O=C(NCc1ccc(-c2cccc([C@](O)(C(=O)OCC3CCN(Cc4ccccc4)CC3)c3ccccc3)c2)s1)c1ccc(CCNC[C@H](O)c2ccc(O)c3[nH]c(=O)ccc23)cc1 [Compound 1H, (1-Benzylpiperidin-4-yl)methyl (S)-2-hydroxy-2-(3-(5-((4-(2-(((R)-2-hydroxy-2-(8-hydroxy-2-oxo-1,2-dihydroquinolin-5-yl)ethyl)amino)ethyl)-benzamido)methyl)thiophen-2-yl)phenyl)-2-phenylacetate]
IC50 [1]: 0.3 to 3 nM | IC50 [2]: 0.3 to 3 nM

O=C(NCc1ccc(-c2cccc([C@](O)(C(=O)OCC3CCN(Cc4ccccc4)CC3)c3ccccc3)c2)o1)c1ccc(CNC[C@H](O)c2ccc(O)c3[nH]c(=O)ccc23)cc1 [Compound 3A, (1-Benzylpiperidin-4-yl)methyl (S)-2-hydroxy-2-(3-(5-((4-((((R)-2-hydroxy-2-(8-hydroxy-2-oxo-1,2-dihydroquinolin-5-yl)ethyl)amino)methyl)-benzamido)methyl)furan-2-yl)phenyl)-2-phenylacetate]
IC50 [1]: 0.3 to 3 nM | IC50 [2]: 0.3 to 3 nM

O=C(c1cc(-c2cccc([C@](O)(C(=O)OCC3CCN(Cc4ccccc4)CC3)c3ccccc3)c2)ccn1)N1CCC(CNC[C@H](O)c2ccc(O)c3[nH]c(=O)ccc23)CC1 [Compound 6B, (1-Benzylpiperidin-4-yl)methyl (S)-2-hydroxy-2-(3-(2-(4-((((R)-2-hydroxy-2-(8-hydroxy-2-oxo-1,2-dihydroquinolin-5-yl)ethyl)amino)methyl)piperidine-1-carbonyl)pyridin-4-yl)phenyl)-2-phenylacetate]
IC50 [1]: < 0.3 nM | IC50 [2]: 0.3 to 3 nM

O=C(c1ccc(CNC[C@H](O)c2ccc(O)c3[nH]c(=O)ccc23)cc1)N1CC=C(c2ccc([C@](O)(C(=O)OCC3CCN(Cc4ccccc4)CC3)c3ccccc3)cc2)CC1 [Compound 15E, (1-benzylpiperidin-4-yl)methyl (S)-2-hydroxy-2-(4-(1-(4-((((R)-2-hydroxy-2-(8-hydroxy-2-oxo-1,2-dihydroquinolin-5-yl)ethyl)amino)methyl)benzoyl)-1,2,3,6-tetrahydropyridin-4-yl)phenyl)-2-phenylacetate]
IC50 [1]: < 0.3 nM | IC50 [2]: 0.3 to 3 nM

— patent US10196386B2, “Compounds having muscarinic receptor antagonist and beta2 adrenergic receptor agonist activity” (priority 2016, dated 2019)
